Counter-ions that a name gives are not always drawn. Like-named read-outs stand apart in the source and are kept apart here.

The target in this assay is T1, alpha2A receptor (Homo sapiens, UniProt P08913).
T1 sequence (P08913 1-465): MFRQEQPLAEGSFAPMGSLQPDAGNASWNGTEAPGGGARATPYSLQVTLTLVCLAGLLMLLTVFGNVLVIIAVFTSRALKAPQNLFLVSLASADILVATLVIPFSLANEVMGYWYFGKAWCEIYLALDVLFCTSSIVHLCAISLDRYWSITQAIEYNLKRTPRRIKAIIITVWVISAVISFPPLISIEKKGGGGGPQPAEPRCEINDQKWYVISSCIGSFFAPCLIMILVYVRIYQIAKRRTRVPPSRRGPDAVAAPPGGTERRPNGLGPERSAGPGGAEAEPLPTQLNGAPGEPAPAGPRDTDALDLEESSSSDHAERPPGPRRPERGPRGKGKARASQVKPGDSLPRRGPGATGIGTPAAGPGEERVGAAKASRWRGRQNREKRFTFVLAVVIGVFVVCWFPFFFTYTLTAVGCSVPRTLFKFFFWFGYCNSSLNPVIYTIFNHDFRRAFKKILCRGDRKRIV
Description: Alpha2A agonistic activity in vitro. Type of assay: cell-based.

Where [1] appears, read: in vitro, read-out: Alpha2A Agonism pEC50 (converted).
Where [2] appears, read: Alpha2A Agonism pEC50, in vitro.

`Cc1cccc2c1CCSC2(C)C1=NCCN1` (stereo not drawn) [Example 78, 2-(1,5-Dimethylisothiochroman-1-yl)-4,5-dihydro-1H-imidazole]: the “Alpha2A Intrinsic Activity” value (in vitro) worked out at 0.62. The EC50 under setting [1] is 501 nM.

For `CCOc1cccc2c1CCOC2C1=NCCN1` (stereo not drawn) [Example 51, 2-(5-Ethoxyisochroman-1-yl)-4,5-dihydro-1H-imidazole], the “Alpha2A Intrinsic Activity” value (in vitro) is 0.26. The EC50 under setting [1] was 631 nM.

As to `CC1(C2=NCCN2)OCCc2c(C(O)C(C)(C)C)cccc21` (single isomer, unassigned) [Example 13, 1-(1-(4,5-Dihydro-1H-imidazol-2-yl)-1-methylisochroman-5-yl)-2,2-dimethylpropan-1-ol], the “Alpha2A Intrinsic Activity” value (in vitro) stood at 0.66. The EC50 under setting [1] is 1260 nM.

As to `C[C@@H]1Cc2c(F)cccc2C(C2=NCCN2)O1` (stereo partly drawn) [Example 50, 2-((3R)-5-fluoro-3-methylisochroman-1-yl)-4,5-dihydro-1H-imidazole], the EC50 under setting [2] was 25.1 nM. Further, the “Alpha2A Intrinsic Activity” value (in vitro) is reported as 0.90.

`CC1Cc2c(Br)cccc2C(C)(C2=NCCN2)O1` (stereo not drawn) [Example 31, 2-(5-Bromo-1,3-dimethylisochroman-1-yl)-4,5-dihydro-1H-imidazole]: the “Alpha2A Intrinsic Activity” value (in vitro) is 0.43. For the same compound, the EC50 under setting [1] is 1260 nM.

Consider `COc1cccc2c1CCOC2C1=NCCN1` (single isomer, unassigned) [Example 82, 2-(5-methoxyisochroman-1-yl)-4,5-dihydro-1H-imidazole], for which the “Alpha2A Intrinsic Activity” value (in vitro) is reported as 0.52. For the same compound, the EC50 under setting [1] is 158 nM.

Take `CC#Cc1cccc2c1CCOC2C1=NCCN1` (stereo not drawn) [Example 55, 2-(5-(Prop-1-yn-1-yl)isochroman-1-yl)-4,5-dihydro-1H-imidazole]: the “Alpha2A Intrinsic Activity” value (in vitro) stood at 0.80. Also, under setting [1], the EC50 is 126 nM.

As to `CC[C@@H]1Cc2c(Cl)cccc2C(C2=NCCN2)O1` (stereo partly drawn) [Example 12, 2-((3R)-5-chloro-3-ethylisochroman-1-yl)-4,5-dihydro-1H-imidazole], the “Alpha2A Intrinsic Activity” value (in vitro) is listed as 0.94. For the same compound, the EC50 under setting [1] is 1580 nM.

`Cc1cccc2c1CC(CC(F)(F)F)OC2C1=NCCN1` (single isomer, unassigned) [Example 86, 2-((3)-5-methyl-3-(2,2,2-trifluoroethyl)isochroman-1-yl)-4,5-dihydro-1H-imidazole]: the “Alpha2A Intrinsic Activity” value (in vitro) was 0.28. For the same compound, the EC50 under setting [1] was 100 nM.

Regarding `Ic1cccc2c1CCOC2C1=NCCN1` (stereo not drawn) [Example 18, 2-(5-Iodoisochroman-1-yl)-4,5-dihydro-1H-imidazole], the EC50 under setting [2] is 2 nM. The “Alpha2A Intrinsic Activity” value (in vitro) was found to be 0.81.

Under setting [2], `CCc1cccc2c1CC(C)OC2C1=NCCN1` (stereo not drawn) [Example 39, 2-(5-Ethyl-3-methylisochroman-1-yl)-4,5-dihydro-1H-imidazole] had an EC50 of 15.8 nM. In addition, the “Alpha2A Intrinsic Activity” value (in vitro) amounted to 0.67.

With `Cc1cccc2c1CCOC2C1=NCCN1` (stereo not drawn) [Example 1, 2-(5-Methylisochroman-1-yl)-4,5-dihydro-1H-imidazole], the EC50 under setting [2] is 3.98 nM. Further, the “Alpha2A Intrinsic Activity” value (in vitro) came to 0.89.

The compound `CC1COC(C2=NCCN2)c2cccc(Br)c21` (stereo not drawn) [Example 20, 2-(5-Bromo-4-methylisochroman-1-yl)-4,5-dihydro-1H-imidazole] had an EC50 under setting [2] of 63.1 nM. Also, the “Alpha2A Intrinsic Activity” value (in vitro) was determined as 0.87.

For the compound `Oc1cccc2c1CCOC2C1=NCCN1` (stereo not drawn) [Example 9, 1-(4,5-Dihydro-1H-imidazol-2-yl)isochroman-5-ol], for the setting “in vitro”, the “Alpha2A Intrinsic Activity” value is recorded as 0.73. In addition, the EC50 under setting [1] is 200 nM.

Under setting [2], `CC1Cc2c(Cl)cccc2C(C2=NCCN2)O1` (stereo not drawn) [Example 26, 2-(5-Chloro-3-methylisochroman-1-yl)-4,5-dihydro-1H-imidazole] showed an EC50 of 3.98 nM. The “Alpha2A Intrinsic Activity” value (in vitro) is 0.82.

`CSc1cccc2c1CCOC2C1=NCCN1` (stereo not drawn) [Example 87, 2-(5-(Methylthio)isochroman-1-yl)-4,5-dihydro-1H-imidazole] showed an EC50 under setting [2] of 63.1 nM. In addition, the “Alpha2A Intrinsic Activity” value (in vitro) amounted to 0.75.

As to `Brc1cccc2c1CCOC2C1=NCCN1` (single isomer, unassigned) [Example 101, 2-(5-bromoisochroman-1-yl)-4,5-dihydro-1H-imidazole], under setting [2], the EC50 was 3.16 nM. Where the note is “in vitro”, the “Alpha2A Intrinsic Activity” value is 0.89.

For `c1cc2c3c(c1)C(C1=NCCN1)OCC3CCCC2` (stereo not drawn) [Example 57, 2-(3,7,8,9,10,10a-Hexahydro-1H-cyclohepta[de]isochromen-3-yl)-4,5-dihydro-1H-imidazole], the “Alpha2A Intrinsic Activity” value (in vitro) is 0.11. Besides, the EC50 under setting [1] was 2000 nM.

Compound `C[C@H]1Cc2c(Cl)cccc2C(C2=NCCN2)O1` (stereo partly drawn) [Example 34, 2-((3S)-5-chloro-3-methylisochroman-1-yl)-4,5-dihydro-1H-imidazole] showed an EC50 under setting [2] of 63.1 nM. In addition, the “Alpha2A Intrinsic Activity” value (in vitro) is 0.78.

In the case of `Cc1cccc2c1C[C@H](C)OC2C1=NCCN1` (stereo partly drawn) [Example 37, 2-((3S)-3,5-dimethylisochroman-1-yl)-4,5-dihydro-1H-imidazole], the “Alpha2A Intrinsic Activity” value (in vitro) was found to be 0.63. Under setting [1], the EC50 is 316 nM.

With `Clc1cccc2c1CCOC2C1=NCCN1` (single isomer, unassigned) [Example 92, 2-(5-chloroisochroman-1-yl)-4,5-dihydro-1H-imidazole], the EC50 under setting [2] is 31.6 nM. Also, the “Alpha2A Intrinsic Activity” value (in vitro) was determined as 0.78.

With `CC(O)c1cccc2c1CCOC2C1=NCCN1` (stereo not drawn) [Example 58, 1-(1-(4,5-Dihydro-1H-imidazol-2-yl)isochroman-5-yl)ethanol], for the setting “in vitro”, the “Alpha2A Intrinsic Activity” value came to 0.47.

In the case of `CC1(C2=NCCN2)OCCc2c(Br)cccc21` (stereo not drawn) [Example 11, 2-(5-Bromo-1-methylisochroman-1-yl)-4,5-dihydro-1H-imidazole], under setting [2], the EC50 is 100 nM. Under “in vitro”, the “Alpha2A Intrinsic Activity” value was 0.83.

On to `CC1(C2=NCCN2)OCCc2c(C(O)C(C)(C)C)cccc21` (single isomer, unassigned) [Example 14, 1-(1-(4,5-Dihydro-1H-imidazol-2-yl)-1-methylisochroman-5-yl)-2,2-dimethylpropan-1-ol], for which the “Alpha2A Intrinsic Activity” value (in vitro) came out at 0.43. The EC50 under setting [1] is 3160 nM.

For the compound `C[C@@H]1Cc2c(cccc2C(F)(F)F)C(C2=NCCN2)O1` (stereo partly drawn) [Example 19, 2-((3R)-3-methyl-5-(trifluoromethyl)isochroman-1-yl)-4,5-dihydro-1H-imidazole], the EC50 under setting [2] was 5.01 nM. Moreover, the “Alpha2A Intrinsic Activity” value (in vitro) was found to be 0.81.

With `COCC1Cc2c(C)cccc2C(C2=NCCN2)O1` (stereo not drawn) [Example 74, 2-(5-Methyl-3-(methoxymethyl)isochroman-1-yl)-4,5-dihydro-1H-imidazole], for the setting “in vitro”, the “Alpha2A Intrinsic Activity” value is on record as 0.35. Besides, under setting [1], the EC50 was 794 nM.

As to `Cc1cccc2c1CC(CC(F)(F)F)OC2C1=NCCN1` (stereo not drawn) [Example 52, 2-(5-Methyl-3-(2,2,2-trifluoroethyl)isochroman-1-yl)-4,5-dihydro-1H-imidazole], for the setting “in vitro”, the “Alpha2A Intrinsic Activity” value came out at 0.41. The EC50 under setting [1] is 100 nM.

As to `COc1cccc2c1CCOC2C1=NCCN1` (stereo not drawn) [Example 17, 2-(5-Methoxyisochroman-1-yl)-4,5-dihydro-1H-imidazole], the “Alpha2A Intrinsic Activity” value (in vitro) is reported as 0.81. The EC50 under setting [1] was 25.1 nM.

Turning to `CC1(C2=NCCN2)SCCc2c(Br)cccc21` (stereo not drawn) [Example 66, 2-(5-Bromo-1-methylisothiochroman-1-yl)-4,5-dihydro-1H-imidazole], the “Alpha2A Intrinsic Activity” value (in vitro) is on record as 0.43. The EC50 under setting [1] is 1580 nM.

Regarding `CCc1cccc2c1CCOC2C1=NCCN1` (stereo not drawn) [Example 8], under setting [2], the EC50 is 39.8 nM. In addition, for the setting “in vitro”, the “Alpha2A Intrinsic Activity” value was 0.77.

For `COc1cccc2c1CCSC2C1=NCCN1` (stereo not drawn) [Example 70, 2-(5-Methoxyisothiochroman-1-yl)-4,5-dihydro-1H-imidazole], for the setting “in vitro”, the “Alpha2A Intrinsic Activity” value is listed as 0.07. Besides, under setting [1], the EC50 was 2000 nM.

Under setting [2], `Cc1cccc2c1CC(CC(F)F)OC2C1=NCCN1` (stereo not drawn) [Example 84, 2-(3-(2,2-Difluoroethyl)-5-methylisochroman-1-yl)-4,5-dihydro-1H-imidazole] showed an EC50 of 100 nM. For the same compound, the “Alpha2A Intrinsic Activity” value (in vitro) stood at 0.45.

`Cc1cccc2c1CC(C)SC2C1=NCCN1` (stereo not drawn) [Example 62, 2-(3,5-Dimethylisothiochroman-1-yl)-4,5-dihydro-1H-imidazole]: under “in vitro”, the “Alpha2A Intrinsic Activity” value came out at 0.77.

In the case of `Cc1cccc2c1CC(CC(F)F)OC2C1=NCCN1` (single isomer, unassigned) [Example 89, 2-((3-(2,2-difluoroethyl)-5-methylisochroman-1-yl)-4,5-dihydro-1H-imidazole hydrochloride], the EC50 under setting [2] is 39.8 nM. Also, where the note is “in vitro, hydrochloride”, the “Alpha2A Intrinsic Activity” value came to 0.33.

The values are drawn from patent US9249127B2 (Orion Corporation, priority 2012, dated 2016).
